According to US5137889A, “Dihydropyridine derivatives and process for preparing the same” (Otsuka Pharmaceutical Co., Ltd., priority 1983, dated 1992):

Assays:
[1] = molecular target: T1, Calmodulin-cyclic-AMP phosphodiesterase (Bos taurus, UniProt P62157); assay: Calmodulin-cyclic-AMP phosphodiesterase inhibitory activity (presence of calmodulin); assay type: biochemical, bovine; conditions: with calmodulin and CaCl2, pH 7.0, 30° C., 30 minutes; for IC50: read-out: Calmodulin-cyclic-AMP phosphodiesterase IC50 (converted)
T1 construct: tissue Amano & Co. (calmodulin only); host or cells: phosphodiesterase: bovine heart, partially purified; calmodulin: bovine brain
From the text: (1) Calmodulin: A calmodulin product manufactured by Amano & Co., which was isolated from the brain of bovine, and purified so as to be considered as a single substance with respect to SDS-page (polyacrylamide gel electrophoresis) method.
(§1) (2) Calmodulin-dependent cyclic-AMP phosphodiesterase (EC 3.1.4.17): An enzyme substance isolated from the heart of bovine and purified partially by a method of modified version of the disclosure in H. C. Ho, T. S. Teo, et al.: "Biochim. Biophys. Acta", 429, 461 (1976).
(§2) (3) 5'-Nucleotidase (EC 3.1.3.5): Grade IV substance (isolated from Crotalus adamanteus venom) manufactured by Sigma & Co.
(§3) (4) Others: Remainder of the reagents used in the test were those of reagent grade chemicals manufactured by Wako Pure-Chemical Industries, Ltd.
(§4) Calmodulin inhibitory activity of each of the test compounds was measured by a method of modified version of the disclosure in T. S. Teo and T. H. Wang: "J. Bio. Chem.", 248, 588 (1973).
(2) Calmodulin: One unit thereof stimulates 0.015 activated unit of cyclic-AMP phosphodiesterase to 50% of the maximum activity of the enzyme.
(§5) (3) 5'-Nucleotidase: One unit thereof hydrolyzes 1.0 micromole of inorganic phosphorus from adnosine 5'-monophosphate per minute at pH 9.0 at 37° C.
(1) Calmodulin-cyclic-AMP phosphodiesterase inhibitory activity:
40 mM of Imidazol, 20 mM of MgCl2, 20 mM of CaC12, 0.008 unit of cyclic-AMP phosphodiesterase, 1.0 unit of calmodulin, 0.2 unit of 5'-nucleotidase and 1.0 ml of 10 mM-tris(hydroxymethyl)aminomethane/HCl buffer solution (pH 7.0) containing 0.5 mM of cyclic-AMP were mixed together, and reacted at 30° C. for 30 minutes. Each of the test compounds was dissolved in methanol or N,N-dimethylformamide as the solvent, provided that the quantity of the solvent was not exceed 2% of the total amount of the mixture. After the reaction was completed, the reaction mixture was ice-cooled, and 0.5 ml each of aqueous solutions of 16.5%-trichloroacetic acid, 1%-thiourea, 3%-ammonium ferrous sulfate were respectively added to the reaction mixture. Further, 0.15 ml of 4.4%-ammonium molibdate solution was added to the mixture and the whole of the mixture was stirred, and was centrifuged at 3,000 r.p.m. for 10 minutes. Then, the centrifuged mixture was allowed to stand at a room temperature for 20 minutes. The OD660 nm (optical density at 660 nm) was measured.

[2] = molecular target: T2, Cyclic-AMP phosphodiesterase (Bos taurus, UniProt P14100); assay: Cyclic AMP phosphodiesterase inhibitory activity (absence of calmodulin, EGTA in place of CaCl2); assay type: biochemical, bovine; conditions: 1 mM EGTA in place of CaCl2; 3 hours
T2 construct: from tissue; host or cells: bovine heart, partially purified
T2 sequence (P14100 1-514 isoform P14100-2): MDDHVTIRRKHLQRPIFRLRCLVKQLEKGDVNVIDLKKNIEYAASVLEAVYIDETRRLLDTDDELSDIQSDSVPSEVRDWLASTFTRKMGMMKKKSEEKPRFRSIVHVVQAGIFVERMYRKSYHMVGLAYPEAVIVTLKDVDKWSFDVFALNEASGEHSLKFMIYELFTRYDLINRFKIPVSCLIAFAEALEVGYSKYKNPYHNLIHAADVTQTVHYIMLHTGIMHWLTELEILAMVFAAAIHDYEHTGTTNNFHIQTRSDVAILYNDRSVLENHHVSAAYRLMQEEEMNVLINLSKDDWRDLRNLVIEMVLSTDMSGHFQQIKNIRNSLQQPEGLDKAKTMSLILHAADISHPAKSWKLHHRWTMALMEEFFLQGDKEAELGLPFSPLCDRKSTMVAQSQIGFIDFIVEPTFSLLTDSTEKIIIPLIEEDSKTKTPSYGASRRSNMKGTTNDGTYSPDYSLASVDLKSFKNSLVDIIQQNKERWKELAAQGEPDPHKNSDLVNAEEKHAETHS
From the text: as §1, §2, §3, §4, §5
(2) Cyclic AMP phosphodiesterase inhibitory activity:
The reaction was conducted by a method similar to that described in (1) as mentioned above, except that 1 mM of EGTA [ethylene glycol-bis(β-amino ethyl ether)-N,N-tetraacetic acid] was used in place of 20 mM of CaCl2. The reaction was conducted for 3 hours.

[3] = system: SHR-rats (spontaneously hypertensive rats); conditions: 30 mg/kg p.o.
Method: Systolic blood pressures and heart beat of SHR-rats (spontaneously hypertensive rats) were determined by a "tail cuff method". Thus the test animal was placed in a thermostat chamber (Type: FR-12RS, manufactured by Isuze & Co.) and was warmed at 40° C. for 15 minutes so as to vasodilate the tail arteria, the systolic blood pressures were measured by an electro sphygmomanometer (Type: PE-300, manufactured by Narco-Biosystems, Inc.) and recorded by an ink-writing recorder (Type: RECTI-HORIZ 8s, manufactured by San-Ei Instrument & Co.). The experiments were conducted under non-anesthetized and semi-confinement conditions. The test compound was orally administered forcedly by using a sonde for oral administration. The test compound was suspended in 0.15%-gum arabic powder aqueous solution so as to make the quantity of the test compound to 2.5 ml/kg. The test animal was not fasted, and the systolic blood pressures (mm-Hg) were measured before the administration (hereinafter referred to as "PRE") and after the administration (8, 24, 30, 48, 54 and 72 hours after the administration) of the test compound. The data of systolic blood pressure measured before the administration are shown in absolute value of mmHg, and the data measured after the administration are shown in the differences from the absolute values.

Row | Molecule | IC50 [1] [µM] | IC50 [2] [µM] | Calmodulin-cyclic-AMP phosphodiesterase IC50 [1] [µg/mL] | Cyclic-AMP phosphodiesterase IC50 [2] [µg/mL] | Blood pressure after the administration, 24 hours (difference from the absolute value before administration) [3] [mm-Hg] | Blood pressure after the administration, 30 hours (difference from the absolute value before administration) [3] [mm-Hg] | Blood pressure after the administration, 48 hours (difference from the absolute value before administration) [3] [mm-Hg] | Blood pressure after the administration, 54 hours (difference from the absolute value before administration) [3] [mm-Hg] | Blood pressure after the administration, 72 hours (difference from the absolute value before administration) ([3]; 72 hours) [mm-Hg]
1 | COC(=O)C1=C(C)NC(C)=C(C(=O)OCCN2CCN(CC#Cc3ccccc3)CC2)C1c1cccc([N+](=O)[O-])c1 (stereo not shown) [Test Compound 23, Methyl 2-[4-(3-phenyl-2-propynyl)-1-piperazinyl]ethyl 1,4-dihydro-2,6-dimethyl-4-(3-nitrophenyl)pyridine-3,5-dicarboxylate] | 14.3 | > 179 | – | – | – | – | – | – | –
2 | COC(=O)C1=C(C)NC(C)=C(C(=O)OC/C=C/c2ccc(O)cc2)C1c1ccc(Cl)cc1Cl (stereo not shown) [Test Compound 24, Methyl 3-(4-hydroxyphenyl)-2(E)propenyl 1,4-dihydro-2,6-dimethyl-4-(2,4-dichloro-phenyl)pyridine-3,5-dicarboxylate] | 5.02 | 30.7 | – | – | – | – | – | – | –
3 | COC(=O)C1=C(C)NC(C)=C(C(=O)OC/C=C/c2cccc(O)c2)C1c1cccc([N+](=O)[O-])c1 (stereo not shown) [Test Compound 25, Methyl 3-(3-hydroxyphenyl)-2(E)propenyl 1,4-dihydro-2,6-dimethyl-4-(3-nitrophenyl)-pyridine-3,5-dicarboxylate] | 1.94 | 53 | – | – | – | – | – | – | –
4 | Methyl 3-(4-hydroxyphenyl)-2(E)-propenyl 1,4-dihydro-2,6-dimethyl-4-(3-nitrophenyl)pyridine-3,5-dicarboxylate [Test Compound 1] | – | – | 4.1 | 60 | -38.6 | -21.2 | -21.0 | -19.2 | –
5 | Methyl 3-(4-hydroxyphenyl)-2-propynyl 1,4-dihydro-2,6-dimethyl-4-(3-nitrophenyl)-pyridine-3,5-dicarboxylate [Test Compound 12] | – | – | 0.78 | 13 | -18.0 | -25.8 | -19.8 | -14.6 | –
6 | Methyl 4-(4-methylthiophenyl)-3(E)-butenyl 1,4-dihydro-2,6-dimethyl-4-(3-nitrophenyl)-pyridine-3,5-dicarboxylate [Test Compound 15] | – | – | 0.062 | 0.23 | -75.4 | -66.8 | -20.8 | -10.6 | -9.6
